Reference: US20190307754A1, “PDE9 INHIBITORS FOR TREATMENT OF PERIPHERAL DISEASES” (IMARA, INC., priority 2016, published 2019)
Where “and” joins values, the source holds several entries; their conditions need not be identical. Identical values can stand only once.

Assays:
[1] = Plasma protein binding, monkey; format: in vitro ADME; conditions: read-out: mean plasma fraction bound (converted)
[2] = tested on: Berkeley sickle cell transgenic mice; assay: HbF positive and sickled red blood cells in Berkeley sickle cell transgenic mice; format: in vivo; conditions: 30 mg/kg/day Compound P3.1 or 100 mg/kg/day HU, gavage, 30 days
Description: This study assessed the effects of chronic dosing (30 day) of Compound P3.1 and HU on HbF and cell sickling in a mouse model of sickle cell disease. Berkeley sickle cell transgenic mice (Hbatm1PazHbbtm1Tow Tg(HBA-HBBs)41Paz/J) were divided into groups of 7 to 8 animals and were dosed once daily, by gavage, for 30 days with either vehicle (PEG:water), 30 mg/kg/day of Compound P3.1, or 100 mg/kg/day of HU. This mouse genotype mimics the genetic, hematologic and histopathologic features that are found in humans afflicted with sickle cell anemia, including irreversibly sickled RBCs, anemia and multi-organ pathology. Blood was collected from treated animals on Day 30 for limited routine hematology as well as derivation of the percent of sickled and HbF positive RBCs and total bilirubin. At termination, the spleen was removed and weighed.

[3] = Brain and plasma concentrations after single IV dose in rat; format: in vivo; conditions: for Mean Plasma/Brain Ratio / Concentration Brain / Concentration Plasma / Plasma/Brain Ratio: 3 mg/kg IV; for Concentration Brain / Concentration Plasma / Plasma/Brain Ratio: individual animals, 3 mg/kg
Description: (§1) Blood samples were taken at 2 minutes (IV only), then 8, 15, 30 minutes, and 1, 2, 4, 8, and 24 hours after dosing and analyzed for key PK parameters. In the rats, brain samples were taken at 24 hours and analyzed for Compound P3.1. To evaluate the penetration of Compound P3.1 across the blood-brain barrier (BBB), 10 additional rats received IV Compound P3.1 3 mg/kg and plasma and brain concentrations of Compound P3.1 were determined from 2 animals at 15 minutes, 30 minutes and 1, 2, and 4 hours after dosing.

[4] = tested on: TNF-α activated endothelium; assay: Micro-channel assay of platelet, PMN and RBC binding (FIG. 10); format: cell-based, human; conditions: bound cells at 30 min
Description: In another assay, using the same method, the reduction of PMN and RBC bindings to TNF-α activated endothelium in a micro channel well was confirmed. Platelet, PMN, and RBC in blood samples from 5 healthy normal volunteers (donors) were labelled with fluorescent dyes. The blood samples were incubated with Compound P3.1 for 2 hours or 3 hours, or HU for 3 hours, prior to running them on micro channels that were previously coated with endothelial cells activated with TNF-α. The % of bound cells was quantified at 30 min. Results are shown in FIG. 10A, FIG. 10B, and FIG. 10C.

[5] = Stability study in purified water; format: physicochemical; conditions: approximately 40 mg/mL in purified water, refrigerated and ambient, 8 days
Description: In another stability study, Compound P3.1 was dissolved at approximately 40 mg/mL of purified water, and evaluated for purity over a period of 8 days. Samples were stored at both refrigerated and ambient conditions, and tested at T=0, Day 2, and Day 8.

[6] = Pharmacokinetics in mice and rats (statements for both species); format: in vivo; conditions: for half-life: read-out: elimination half-life (converted)
Description: The PK evaluation of Compound P3.1 included Absorption, Distribution, Metabolism, and Excretion (ADME) studies, as well as assessment for CYP enzyme inhibition.
as §1

[7] = tested on: CYP3A4; assay: CYP induction, CYP3A4; format: in vitro ADME
[8] = Pharmacokinetics of single oral and IV dose in Sprague Dawley rats; format: in vivo
Description: as §1

[9] = Plasma protein binding, rat; format: in vitro ADME; conditions: read-out: mean plasma fraction bound (converted)
[10] = tested on: HbSS-Townes mice; assay: Microvascular stasis and hematology in HbSS-Townes mice; format: in vivo
Description: The ability of Compound P3.1 to reduce vaso-occulsion was assessed in HbSS-Townes transgenic sickle mice after transient hypoxia and re-oxygenation. This study assessed the effects of repeated (10 days) oral dosing of Compound P3.1 and HU on microvascular stasis and other hematological markers of sickle cell disease, after transient hypoxia and re-oxygenation, in Townes transgenic sickle mice, a mouse model of sickle cell disease (Hba^tm1(HBA)Tow Hbb^tm2(HBG1,HBB*)Tow/Hbb^tm3(HBG1,HBB)Tow/J). HbSS-Townes mice were divided into groups of 3 mice and were then dosed orally via drinking water with Compound P3.1 at 10 mg/kg/day, Compound P3.1 at 30 mg/kg/day, HU (100 mg/kg/day), or a combination of Compound P3.1 and HU (at doses of 30 and 100 mg/kg/day, respectively) for 10 days. A final group received water containing 0.08% methylcellulose, the vehicle used to prepare the test items, and served as controls. On Day 7 of treatment, the mice were implanted with dorsal skin-fold chambers (DSFC), and on Day 10 of treatment, 20-23 flowing subcutaneous venules in the DSFC window were selected and mapped. After venule selection and mapping, mice were placed in a chamber and exposed to a hypoxic atmosphere (7% O2/93% N2) for 1 hour, after which they were returned to room air. All of the selected venules were re-examined after 1 and 4 hours of re-oxygenation in room air and the number of static (no flow) venules was counted and expressed as percent stasis. On completion of these measurements, blood was collected for clinical pathology with a focus on hematological measures associated with sickle cell disease.

[11] = Sprague Dawley rats, 10 mg/kg oral
[12] = rat, blood, Sprague Dawley rats, 3 mg/kg IV
[13] = rat, blood, Sprague Dawley rats, 10 mg/kg oral
[14] = Compound P3.1 30 mg/kg/day, HU 100 mg/kg/day, or both, 10 days

**Q.** Which fraction unbound [1] does the source give for `C[C@@H]1CN(Cc2ncccn2)C[C@H]1c1cn2c(C3CCOCC3)ncc2c(=O)[nH]1` (single isomer, unassigned) [Compound P3.1] here?
**A.** 0.814

**Q.** What about the “RBC count, hemoglobin concentration or hematocrit” value [2] of the same compound?
**A.** not associated with any apparent alterations

**Q.** What about the neutrophil levels [2] of the same compound?
**A.** reduced neutrophil levels

**Q.** And the spleen weight [2]?
**A.** statistically significant decreases

**Q.** What about the total bilirubin [2] of the same compound?
**A.** statistically significant decreases

**Q.** What about the total leucocyte count [2] of the same compound?
**A.** statistically significant decreases

**Q.** What about the “percentage of HbF positive RBCs” value ([2]; vs controls) of the same compound?
**A.** increases in the percentage of HbF positive RBCs

**Q.** And the “percentage of sickled RBCs” value ([2]; vs controls)?
**A.** statistically significant decreases in the percentage of sickled RBCs

**Q.** What about the “Mean Plasma/Brain Ratio” value ([3]; 0.25 h post dose) of the same compound?
**A.** 20.2

**Q.** And the “Concentration Brain” value ([3]; 0.25 h post dose)?
**A.** 111 and 112

**Q.** What about the “Concentration Plasma” value ([3]; 0.25 h post dose) of the same compound?
**A.** 2400 and 2110

**Q.** And the “Plasma/Brain Ratio” value ([3]; 0.25 h post dose)?
**A.** 21.6 and 18.8

**Q.** What about the “Mean Plasma/Brain Ratio” value ([3]; 0.5 h post dose) of the same compound?
**A.** 25.1

**Q.** And the “Concentration Brain” value ([3]; 0.5 h post dose)?
**A.** 82.5 and 50.7

**Q.** What about the “Concentration Plasma” value ([3]; 0.5 h post dose) of the same compound?
**A.** 1790 and 1450

**Q.** What about the “Plasma/Brain Ratio” value ([3]; 0.5 h post dose) of the same compound?
**A.** 21.7 and 28.6

**Q.** And the “Mean Plasma/Brain Ratio” value ([3]; 1 h post dose)?
**A.** 23.1

**Q.** And the “Concentration Brain” value ([3]; 1 h post dose)?
**A.** 28.6 and 44.1

**Q.** And the “Concentration Plasma” value ([3]; 1 h post dose)?
**A.** 647 and 1040

**Q.** What about the “Plasma/Brain Ratio” value ([3]; 1 h post dose) of the same compound?
**A.** 22.6 and 23.6

**Q.** And the “Mean Plasma/Brain Ratio” value ([3]; 2 h post dose)?
**A.** 33.1

**Q.** What about the “Concentration Brain” value ([3]; 2 h post dose) of the same compound?
**A.** 8.88 and 5.34

**Q.** What about the “Concentration Plasma” value ([3]; 2 h post dose) of the same compound?
**A.** 245 and 206

**Q.** What about the “Plasma/Brain Ratio” value ([3]; 2 h post dose) of the same compound?
**A.** 27.6 and 38.6

**Q.** What about the “Concentration Plasma” value ([3]; 4 h post dose) of the same compound?
**A.** 59.8 and 107

**Q.** And the “brain concentration at 4 hours postdose” value ([3]; IV dosing, 4 hours postdose)?
**A.** no longer detectable in the brain

**Q.** What about the platelet binding ([4]; Compound P3.1 2 or 3 hours, HU 3 hours) of the same compound?
**A.** did not impact platelet binding

**Q.** What about the “PMN adhesion to endothelial cells” value ([4]; blood incubated 2 or 3 hours) of the same compound?
**A.** reduced

**Q.** And the “RBC adhesion to endothelial cells” value ([4]; blood incubated 2 or 3 hours)?
**A.** reduced

**Q.** What about the “stability: purity and appearance of solution” value [5] of the same compound?
**A.** No significant change to the purity of the compound or appearance of the solution

**Q.** And the “plasma concentrations by 24 hours” value ([6]; 10 mg/kg oral, both species)?
**A.** below the lower limit of quantification (LLOQ)

**Q.** What about the Tmax ([6]; CD1 (mouse), Sprague Dawley (rat), mouse, rat, plasma, 10 mg/kg, oral, mice and rats, read-out: time of maximum concentration (Tmax)) of the same compound?
**A.** 30 to 60 min

**Q.** And the half-life ([6]; CD1 (mouse), Sprague Dawley (rat), mouse, rat, plasma, oral, intravenous, mice and rats)?
**A.** < 180 min

**Q.** What about the half-life ([6]; CD1 (mouse), Sprague Dawley (rat), mouse, rat, plasma, other: oral and intravenous (both routes), mice and rats) of the same compound?
**A.** ~180 min

**Q.** And the “plasma concentration by 24 hours” value ([6]; IV, both species)?
**A.** below the LLOQ

**Q.** What about the “induction of CYP3A4” value [7] of the same compound?
**A.** potential for induction

**Q.** What about the Cl_obs ([8]; Sprague Dawley rats, 3 mg/kg IV) of the same compound?
**A.** 16.2 mL/min/kg

**Q.** And the Flast [8, 11]?
**A.** 44.6%

**Q.** What about the Vss obs [8, 11] of the same compound?
**A.** 44.6 L/kg

**Q.** And the bioavailability ([8]; Sprague Dawley, rat, plasma, po, 10 mg/kg, read-out: oral bioavailability Flast)?
**A.** 63.4%

**Q.** What about the AUC(0-t) [8, 12] of the same compound?
**A.** 3110 ng·h/mL

**Q.** And the C0 [8, 12]?
**A.** 4820 ng/mL

**Q.** What about the MRT [8, 12] of the same compound?
**A.** 1.44 h

**Q.** And the half-life [8, 12]?
**A.** 169 min

**Q.** And the Vd ([8]; rat, blood, Sprague Dawley rats, 3 mg/kg IV, read-out: Vss obs)?
**A.** 1.65 L/kg

**Q.** And the AUC(0-t) [8, 13]?
**A.** 4620 ng·h/mL

**Q.** And the C0 [8, 13]?
**A.** 1110 ng/mL

**Q.** What about the Tmax [8, 13] of the same compound?
**A.** 1 h

**Q.** What about the half-life [8, 13] of the same compound?
**A.** 181 min

**Q.** And the “continuously exposed out to” value ([8]; rats, 10 mg/kg oral)?
**A.** 8 h

**Q.** What about the fraction unbound [9] of the same compound?
**A.** 0.748

**Q.** And the microvascular stasis ([10]; 10 mg/kg/day, 10 days, 1-hour time point)?
**A.** reduced stasis statistically significantly

**Q.** And the microvascular stasis ([10]; 10 mg/kg/day, 10 days, 4 hours)?
**A.** not at 4 hours

**Q.** And the microvascular stasis ([10]; 30 mg/kg/day Compound P3.1 or 100 mg/kg HU, drinking water, 10 days, 1 and 4 hours post hypoxia)?
**A.** statistically significant reductions in stasis

**Q.** And the “total WBC numbers” value ([10]; Compound P3.1 30 mg/kg/day or HU 100 mg/kg/day, 10 days)?
**A.** reduce total WBC numbers

**Q.** What about the “vessel occlusion induced by transient hypoxia and re-oxygenation” value ([10]; Compound P3.1 30 mg/kg/day, HU 100 mg/kg/day, or both) of the same compound?
**A.** effectively reduced

**Q.** What about the “number of HbF positive red cells” value [10, 14] of the same compound?
**A.** increase the number of HbF positive red cells

**Q.** And the “proportion of sickled RBCs” value [10, 14]?
**A.** reduce the proportion of sickled RBCs
